Source: article PMC3433420 (PLoS ONE, 2012)
Non-standard residues stand in square brackets, D forms with d. Residues, ends and D or L forms follow the SMILES beside them. No end group written: not given here. pY = N[C@@H](Cc1ccc(OP(=O)(O)O)cc1)C(=O)O

How the values were obtained:
[1] = tested on: SH2 and PTB domains; assay: Sum of relative binding free energies (ΔΔG) from FP KDs, relative to 20 µM threshold; design: species or system human; unit not given here; conditions: for Sum free energies (ΔΔG): summed over the receptor's phosphopeptides
Procedure: In order to further define and classify commonalities and differences among the ErbB family, the relative binding free energy (FE) of each SH2 domain was summed across all phosphosites on each receptor relative to the assay detection threshold of 20 µM according to Equation (3): [drawing 10] (3)

[2] = biological target: T1, RASA1-N SH2 domain (Homo sapiens, UniProt P20936); assay: FP saturation binding assay
T1 sequence (P20936 181-272 limits assumed): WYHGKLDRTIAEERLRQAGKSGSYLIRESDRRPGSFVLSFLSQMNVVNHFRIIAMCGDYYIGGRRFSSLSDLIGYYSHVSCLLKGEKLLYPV

[3] = biological target: PIK3R2-NC tandem SH2 domains (Homo sapiens, UniProt O00459); assay: FP saturation binding assay
Chain of PIK3R2-NC tandem SH2 domains (O00459 330-716 limits assumed): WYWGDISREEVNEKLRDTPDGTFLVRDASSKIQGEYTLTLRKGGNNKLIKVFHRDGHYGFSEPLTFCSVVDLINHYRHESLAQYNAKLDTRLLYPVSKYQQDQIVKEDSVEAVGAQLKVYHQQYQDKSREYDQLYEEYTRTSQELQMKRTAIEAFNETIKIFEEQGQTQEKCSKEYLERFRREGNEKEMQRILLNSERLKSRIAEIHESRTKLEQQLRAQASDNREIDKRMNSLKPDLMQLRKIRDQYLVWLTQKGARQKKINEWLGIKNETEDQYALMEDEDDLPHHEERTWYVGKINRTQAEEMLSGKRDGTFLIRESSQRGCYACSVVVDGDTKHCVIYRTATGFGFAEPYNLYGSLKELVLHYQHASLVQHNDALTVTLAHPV

Work on ERBB3 (SEQG[pY]EEMRAFQD) yielded a GO_SumDDG ([1]; GO group Adaptors) of 1.375, a GO_SumDDG ([1]; GO group Chromatin Remodeling) of 0 and a GO_SumDDG ([1]; GO group Cytoskeletal Regulation) of 3.549. For the same molecule, the GO_SumDDG ([1]; GO group Kinases) was 3.776, the GO_SumDDG ([1]; GO group Phosphatases) was 2.349 and the GO_SumDDG ([1]; GO group Phosphatidyl Inositol Kinases) was 12.5484. The GO_SumDDG ([1]; GO group Phosphatidyl Inositol Phosphatases) was 1.508, the GO_SumDDG ([1]; GO group Phospholipases) was 8.299 and the GO_SumDDG ([1]; GO group RAS GEFs) was 3.469. For the same molecule, the GO_SumDDG ([1]; GO group RAS GTPases) was 10.8637, the GO_SumDDG ([1]; GO group RHO GEFs) was 4.394 and the GO_SumDDG ([1]; GO group Scaffolds) was 3.618. For the same molecule, the GO_SumDDG ([1]; GO group Signal Regulation) was 2.5932.

With ErbB3 (SEQG[pY]EEMRAFQD) the “Sum free energies (ΔΔG)” value ([1]; domain ABL1) was 0.48, the “Sum free energies (ΔΔG)” value ([1]; domain ABL2) was 1.81 and the “Sum free energies (ΔΔG)” value ([1]; domain BCAR3) was 1.81. The “Sum free energies (ΔΔG)” value ([1]; domain BLK) was 4.66, the “Sum free energies (ΔΔG)” value ([1]; domain BLNK) was 1.99 and the “Sum free energies (ΔΔG)” value ([1]; domain BMX) was 0.00. For the same molecule, the “Sum free energies (ΔΔG)” value ([1]; domain BTK) was 0.53, the “Sum free energies (ΔΔG)” value ([1]; domain CRK) was 2.18 and the “Sum free energies (ΔΔG)” value ([1]; domain CRKL) was 0.00. For the same molecule, the “Sum free energies (ΔΔG)” value ([1]; domain DAPP1) was 0.00, the “Sum free energies (ΔΔG)” value ([1]; domain FER) was 1.84 and the “Sum free energies (ΔΔG)” value ([1]; domain FES) was 2.60. For the same molecule, the “Sum free energies (ΔΔG)” value ([1]; domain FGR) was 2.50, the “Sum free energies (ΔΔG)” value ([1]; domain GRAP2) was 0.40 and the “Sum free energies (ΔΔG)” value ([1]; domain GRB2) was 0.00. For the same molecule, the “Sum free energies (ΔΔG)” value ([1]; domain GRB7) was 8.74, the “Sum free energies (ΔΔG)” value ([1]; domain GRB10) was 0.00 and the “Sum free energies (ΔΔG)” value ([1]; domain GRB14) was 0.00. The “Sum free energies (ΔΔG)” value ([1]; domain HCK) was 5.34, the “Sum free energies (ΔΔG)” value ([1]; domain HSH2D) was 2.34 and the “Sum free energies (ΔΔG)” value ([1]; domain INPPL1) was 1.51. For the same molecule, the “Sum free energies (ΔΔG)” value ([1]; domain ITK) was 1.44, the “Sum free energies (ΔΔG)” value ([1]; domain LCK) was 9.34 and the “Sum free energies (ΔΔG)” value ([1]; domain LCP2) was 1.08. The “Sum free energies (ΔΔG)” value ([1]; domain LYN) was 6.66, the “Sum free energies (ΔΔG)” value ([1]; domain MATK) was 2.34 and the “Sum free energies (ΔΔG)” value ([1]; domain NCK1) was 1.97. For the same molecule, the “Sum free energies (ΔΔG)” value ([1]; domain NCK2) was 2.78, the “Sum free energies (ΔΔG)” value ([1]; domain PIK3R1-C) was 15.79 and the “Sum free energies (ΔΔG)” value ([1]; domain PIK3R1-N) was 15.42. For the same molecule, the “Sum free energies (ΔΔG)” value ([1]; domain PIK3R1-NC) was 18.21, the “Sum free energies (ΔΔG)” value ([1]; domain PIK3R2-C) was 4.66 and the “Sum free energies (ΔΔG)” value ([1]; domain PIK3R2-N) was 15.58. For the same molecule, the “Sum free energies (ΔΔG)” value ([1]; domain PIK3R2-NC) was 17.40, the “Sum free energies (ΔΔG)” value ([1]; domain PIK3R3-C) was 14.57 and the “Sum free energies (ΔΔG)” value ([1]; domain PIK3R3-N) was 18.45. For the same molecule, the “Sum free energies (ΔΔG)” value ([1]; domain PIK3R3-NC) was 23.70, the “Sum free energies (ΔΔG)” value ([1]; domain PLCG1-C) was 12.45 and the “Sum free energies (ΔΔG)” value ([1]; domain PLCG1-N) was 2.23. For the same molecule, the “Sum free energies (ΔΔG)” value ([1]; domain PLCG1-NC) was 12.83, the “Sum free energies (ΔΔG)” value ([1]; domain PLCG2-N) was 0.60 and the “Sum free energies (ΔΔG)” value ([1]; domain PLCG2-NC) was 3.76. The “Sum free energies (ΔΔG)” value ([1]; domain PTK6) was 7.16, the “Sum free energies (ΔΔG)” value ([1]; domain PTPN6-C) was 0.00 and the “Sum free energies (ΔΔG)” value ([1]; domain PTPN6-NC) was 0.00. The “Sum free energies (ΔΔG)” value ([1]; domain PTPN11-C) was 0.00, the “Sum free energies (ΔΔG)” value ([1]; domain PTPN11-N) was 4.57 and the “Sum free energies (ΔΔG)” value ([1]; domain PTPN11-NC) was 4.70. For the same molecule, the “Sum free energies (ΔΔG)” value ([1]; domain RASA1-C) was 0.68, the “Sum free energies (ΔΔG)” value ([1]; domain RASA1-N) was 11.64 and the “Sum free energies (ΔΔG)” value ([1]; domain RASA1-NC) was 10.86. For the same molecule, the “Sum free energies (ΔΔG)” value ([1]; domain SH2B2) was 0.53, the “Sum free energies (ΔΔG)” value ([1]; domain SH2B3) was 5.05 and the “Sum free energies (ΔΔG)” value ([1]; domain SH2B) was 1.60. The “Sum free energies (ΔΔG)” value ([1]; domain SH2D1A) was 6.64, the “Sum free energies (ΔΔG)” value ([1]; domain SH2D1B) was 6.98 and the “Sum free energies (ΔΔG)” value ([1]; domain SH2D2A) was 10.39. The “Sum free energies (ΔΔG)” value ([1]; domain SH2D3A) was 0.00, the “Sum free energies (ΔΔG)” value ([1]; domain SH2D3C) was 5.13 and the “Sum free energies (ΔΔG)” value ([1]; domain SH3BP2) was 1.31. The “Sum free energies (ΔΔG)” value ([1]; domain SHB) was 1.08, the “Sum free energies (ΔΔG)” value ([1]; domain SHC1-PTB) was 8.01 and the “Sum free energies (ΔΔG)” value ([1]; domain SHC1) was 3.41. For the same molecule, the “Sum free energies (ΔΔG)” value ([1]; domain SHC2-PTB) was 4.78, the “Sum free energies (ΔΔG)” value ([1]; domain SHC3) was 0.95 and the “Sum free energies (ΔΔG)” value ([1]; domain SHC4) was 1.50. The “Sum free energies (ΔΔG)” value ([1]; domain SHD) was 1.64, the “Sum free energies (ΔΔG)” value ([1]; domain SHE) was 0.00 and the “Sum free energies (ΔΔG)” value ([1]; domain SHF) was 0.00. The “Sum free energies (ΔΔG)” value ([1]; domain SLA2) was 4.59, the “Sum free energies (ΔΔG)” value ([1]; domain SLA) was 0.46 and the “Sum free energies (ΔΔG)” value ([1]; domain SOCS1) was 0.00. The “Sum free energies (ΔΔG)” value ([1]; domain SOCS2) was 2.96, the “Sum free energies (ΔΔG)” value ([1]; domain SOCS3) was 4.06 and the “Sum free energies (ΔΔG)” value ([1]; domain SOCS5) was 6.74. The “Sum free energies (ΔΔG)” value ([1]; domain SOCS6) was 6.61, the “Sum free energies (ΔΔG)” value ([1]; domain SRC) was 9.70 and the “Sum free energies (ΔΔG)” value ([1]; domain STAP1) was 1.44. For the same molecule, the “Sum free energies (ΔΔG)” value ([1]; domain SUPT6H) was 0.00, the “Sum free energies (ΔΔG)” value ([1]; domain SYK-C) was 0.00 and the “Sum free energies (ΔΔG)” value ([1]; domain SYK-N) was 0.00. The “Sum free energies (ΔΔG)” value ([1]; domain SYK-NC) was 2.08, the “Sum free energies (ΔΔG)” value ([1]; domain TEC) was 0.70 and the “Sum free energies (ΔΔG)” value ([1]; domain TENC1) was 3.35. The “Sum free energies (ΔΔG)” value ([1]; domain TNS1) was 3.92, the “Sum free energies (ΔΔG)” value ([1]; domain TNS3) was 4.07 and the “Sum free energies (ΔΔG)” value ([1]; domain TNS4) was 0.67. For the same molecule, the “Sum free energies (ΔΔG)” value ([1]; domain TXK) was 1.88, the “Sum free energies (ΔΔG)” value ([1]; domain VAV1) was 2.95 and the “Sum free energies (ΔΔG)” value ([1]; domain VAV2) was 5.08. The “Sum free energies (ΔΔG)” value ([1]; domain VAV3) was 5.15, the “Sum free energies (ΔΔG)” value ([1]; domain YES1) was 10.32 and the “Sum free energies (ΔΔG)” value ([1]; domain ZAP70-C) was 0.57. The “Sum free energies (ΔΔG)” value ([1]; domain ZAP70-N) was 0.00 and the “Sum free energies (ΔΔG)” value ([1]; domain ZAP70-NC) was 6.20.

In the case of `CSCC[C@H](NC(=O)[C@H](Cc1ccc(OP(=O)(O)O)cc1)NC(=O)[C@H](CCC(=O)O)NC(=O)[C@H](Cc1ccc(O)cc1)NC(=O)[C@H](CC(=O)O)NC(=O)[C@@H](N)CCC(=O)O)C(=O)N[C@@H](CC(N)=O)C(=O)N[C@@H](CCCNC(=N)N)C(=O)N[C@@H](CCC(N)=O)C(=O)N[C@@H](CCCNC(=N)N)C(=O)N[C@@H](CC(=O)O)C(=O)NCC(=O)N[C@@H](CC(=O)O)C(=O)O` [ErbB3 1262 13-mer] (HELM PEPTIDE1{E.D.Y.E.[O=C([C@H](Cc1ccc(OP(=O)(O)O)cc1)N[*:1])[*:2]].M.N.R.Q.R.D.G.D}$$$$V2.0), the Kd [2] is reported as 9.06 µM and the Kd [3] is reported as 18.1 µM.

`CC(C)C[C@H](NC(=O)[C@H](CCCNC(=N)N)NC(=O)[C@H](C)NC(=O)[C@H](Cc1ccc(OP(=O)(O)O)cc1)NC(=O)[C@H](Cc1c[nH]cn1)NC(=O)[C@@H](NC(=O)[C@H](Cc1c[nH]cn1)NC(=O)[C@@H]1CCCN1)C(C)C)C(=O)N[C@@H](CCCCN)C(=O)N[C@H](C(=O)N[C@@H](CC(C)C)C(=O)N[C@@H](CCCNC(=N)N)C(=O)N[C@@H](CC(=O)O)C(=O)O)[C@@H](C)O` [ErbB3pY1307] (HELM PEPTIDE1{P.H.V.H.[O=C([C@H](Cc1ccc(OP(=O)(O)O)cc1)N[*:1])[*:2]].A.R.L.K.T.L.R.D}$$$$V2.0) was tested, and the Kd [2] was 1.88 µM.

Molecule “FDNLYYWDQDPPD [ErbB2 Y1221 (non-phospho)]” has a Kd [2] of 3.69 µM.
